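Dose response: 5 concentrations. Exposure: 48 h. Format: 96-well plates. Endpoint: linear interpolation; highest concentration if not reached. Here, GI50 denotes the concentration required for 50% inhibition of growth.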 Activity calls are given as the source filed them. Cut-off read from the data, not from the text of the source: active = GI50 up to about 1.1 µM and inactive = higher.
How the values were obtained:
Test in all cases: NCI-60 cell line screen, 48 h
CAKI-1 = test system: CAKI-1
PC-3 = test system: PC-3
T47D = test system: T47D
U-251 = test system: U-251
HOP-92 = test system: HOP-92
HT-29 = test system: HT-29
NCI-H23 = test system: NCI-H23
LOX IMVI = test system: LOX IMVI
UACC-257 = test system: UACC-257
MCF7 = test system: MCF7
EKVX = test system: EKVX
SN12C = test system: SN12C
MDA-MB-231 = test system: MDA-MB-231
M14 = test system: M14
UACC-62 = test system: UACC-62
HOP-62 = test system: HOP-62
SR = test system: SR
TK-10 = test system: TK-10
OVCAR-4 = test system: OVCAR-4
NCI-H460 = test system: NCI-H460

CCCCCCN(C(=O)Oc1ccccc1)C(C#N)c1ccccc1 (centres undefined)
GI50 (CAKI-1): > 100 µM (inactive) | GI50 (PC-3): > 100 µM (inactive) | GI50 (T47D): > 100 µM (inactive) | GI50 (U-251): > 100 µM (inactive) | GI50 (HOP-92): > 100 µM (inactive) | GI50 (HT-29): > 100 µM (inactive) | GI50 (NCI-H23): > 100 µM (inactive) | GI50 (LOX IMVI): > 100 µM (inactive) | GI50 (UACC-257): > 100 µM (inactive) | GI50 (MCF7): > 100 µM (inactive) | GI50 (EKVX): > 100 µM (inactive) | GI50 (SN12C): > 100 µM (inactive) | GI50 (MDA-MB-231): > 100 µM (inactive) | GI50 (M14): > 100 µM (inactive) | GI50 (UACC-62): > 100 µM (inactive) | GI50 (HOP-62): > 100 µM (inactive) | GI50 (SR): > 100 µM (inactive) | GI50 (TK-10): > 100 µM (inactive) | GI50 (OVCAR-4): > 100 µM (inactive)

O=C1CS(=O)(=O)C(c2cccc(Oc3ccccc3)c2)N1c1cc(Cl)ccc1Cl (centres undefined)
GI50 (PC-3): 14.7 µM (inactive) | GI50 (T47D): 15.6 µM (inactive) | GI50 (U-251): 15.7 µM (inactive) | GI50 (HOP-92): 18.2 µM (inactive) | GI50 (HT-29): 20 µM (inactive) | GI50 (NCI-H23): 29.1 µM (inactive) | GI50 (LOX IMVI): 14 µM (inactive) | GI50 (NCI-H460): 21.9 µM (inactive) | GI50 (UACC-257): 23.1 µM (inactive) | GI50 (MCF7): 16.1 µM (inactive) | GI50 (EKVX): 35.2 µM (inactive) | GI50 (SN12C): 20.7 µM (inactive) | GI50 (MDA-MB-231): 17.5 µM (inactive) | GI50 (M14): 20.4 µM (inactive) | GI50 (UACC-62): 15.5 µM (inactive) | GI50 (SR): 16.8 µM (inactive) | GI50 (TK-10): 30.1 µM (inactive)

O=C1CC(Br)c2c(Cl)sc(Cl)c21 (centres undefined)
GI50 (CAKI-1): 3.1 µM (inactive) | GI50 (PC-3): 10.8 µM (inactive) | GI50 (T47D): 4.18 µM (inactive) | GI50 (U-251): 3.37 µM (inactive) | GI50 (HOP-92): 15.1 µM (inactive) | GI50 (HT-29): 11.4 µM (inactive) | GI50 (NCI-H23): 16.4 µM (inactive) | GI50 (LOX IMVI): 1.94 µM (inactive) | GI50 (NCI-H460): 18.2 µM (inactive) | GI50 (UACC-257): 4 µM (inactive) | GI50 (MCF7): 3.66 µM (inactive) | GI50 (EKVX): 17.5 µM (inactive) | GI50 (SN12C): 14.1 µM (inactive) | GI50 (MDA-MB-231): 9.98 µM (inactive) | GI50 (M14): 9.75 µM (inactive) | GI50 (UACC-62): 11.8 µM (inactive) | GI50 (HOP-62): 6.01 µM (inactive) | GI50 (SR): 3.89 µM (inactive) | GI50 (TK-10): 2.54 µM (inactive)

COc1ccccc1-n1cnc2c1=NC(C)(C)NC=2C(N)=O
GI50 (CAKI-1): > 100 µM (inactive) | GI50 (PC-3): > 100 µM (inactive) | GI50 (T47D): > 100 µM (inactive) | GI50 (U-251): > 100 µM (inactive) | GI50 (HT-29): > 100 µM (inactive) | GI50 (NCI-H23): > 100 µM (inactive) | GI50 (LOX IMVI): > 100 µM (inactive) | GI50 (NCI-H460): > 100 µM (inactive) | GI50 (UACC-257): > 100 µM (inactive) | GI50 (MCF7): > 100 µM (inactive) | GI50 (EKVX): > 100 µM (inactive) | GI50 (SN12C): > 100 µM (inactive) | GI50 (MDA-MB-231): > 100 µM (inactive) | GI50 (M14): > 100 µM (inactive) | GI50 (UACC-62): > 100 µM (inactive) | GI50 (HOP-62): > 100 µM (inactive) | GI50 (SR): > 100 µM (inactive) | GI50 (TK-10): > 100 µM (inactive) | GI50 (OVCAR-4): > 100 µM (inactive)

CC(=O)Oc1cc2c(cc1OC(C)=O)[C@H]1CC[C@]3(C)[C@@H](OC(C)=O)CC[C@H]3[C@@H]1CC2
GI50 (CAKI-1): 3.22 µM (inactive) | GI50 (PC-3): 9.29 µM (inactive) | GI50 (T47D): 7.26 µM (inactive) | GI50 (U-251): 4.95 µM (inactive) | GI50 (HOP-92): 1.1 µM (active) | GI50 (HT-29): 5.14 µM (inactive) | GI50 (NCI-H23): 10.2 µM (inactive) | GI50 (LOX IMVI): 2.92 µM (inactive) | GI50 (NCI-H460): 8.57 µM (inactive) | GI50 (UACC-257): 9.66 µM (inactive) | GI50 (MCF7): 6.37 µM (inactive) | GI50 (EKVX): 2.56 µM (inactive) | GI50 (MDA-MB-231): 7.41 µM (inactive) | GI50 (M14): 6 µM (inactive) | GI50 (SR): 0.45 µM (active) | GI50 (TK-10): 8.28 µM (inactive) | GI50 (OVCAR-4): 5.61 µM (inactive)

COCOCC1CCCN1CN1CCC[C@H]1COCOC (some centres undefined)
GI50 (CAKI-1): > 100 µM (inactive) | GI50 (PC-3): > 100 µM (inactive) | GI50 (T47D): > 100 µM (inactive) | GI50 (U-251): > 100 µM (inactive) | GI50 (HOP-92): > 100 µM (inactive) | GI50 (HT-29): 70.6 µM (inactive) | GI50 (NCI-H23): > 100 µM (inactive) | GI50 (NCI-H460): 60.5 µM (inactive) | GI50 (UACC-257): > 100 µM (inactive) | GI50 (MCF7): 53.1 µM (inactive) | GI50 (EKVX): > 100 µM (inactive) | GI50 (SN12C): > 100 µM (inactive) | GI50 (MDA-MB-231): > 100 µM (inactive) | GI50 (M14): > 100 µM (inactive) | GI50 (UACC-62): 36.6 µM (inactive) | GI50 (HOP-62): > 100 µM (inactive) | GI50 (SR): 49.8 µM (inactive) | GI50 (TK-10): > 100 µM (inactive) | GI50 (OVCAR-4): > 100 µM (inactive)

Fc1ccccc1/N=c1\oc2ccc(Br)cc2cc1-c1nc2ccccc2[nH]1
GI50 (CAKI-1): 9.55 µM (inactive) | GI50 (PC-3): 7.4 µM (inactive) | GI50 (T47D): 38.3 µM (inactive) | GI50 (U-251): 6 µM (inactive) | GI50 (HOP-92): 18 µM (inactive) | GI50 (NCI-H23): 7.33 µM (inactive) | GI50 (LOX IMVI): 13.2 µM (inactive) | GI50 (NCI-H460): 15 µM (inactive) | GI50 (UACC-257): > 19.8 µM (inactive) | GI50 (MCF7): 14.8 µM (inactive) | GI50 (EKVX): 9.29 µM (inactive) | GI50 (SN12C): 16.6 µM (inactive) | GI50 (MDA-MB-231): 6.7 µM (inactive) | GI50 (M14): 11.2 µM (inactive) | GI50 (UACC-62): 12.8 µM (inactive) | GI50 (HOP-62): 3.65 µM (inactive) | GI50 (SR): > 25.6 µM (inactive) | GI50 (TK-10): 6.59 µM (inactive) | GI50 (OVCAR-4): 5.96 µM (inactive)

Reference: ChEMBL document CHEMBL1201862, “PubChem BioAssay data set” (2004)
